System: apoE4/4-iPSC-derived human neurons
Test: RNA-Seq analysis of apoE4/4-iPSC-derived human neurons
Assay type: cell-based
Conditions: 10 μM, 6 hours
Excerpt: Neuronal Differentiation of Human apoE4/4-iPSCs. Human iPS lines were generated from skin fibroblasts of a subject with apoE4/4 genotype and were maintained under feeder-free conditions in mTeSR1 medium (STEMCELL Technologies). Human apoE4/4-iPSCs were routinely passaged at 1:2-1:4 by brief treatment with Accutase (Millipore) and scraping. The human iPSC protocol was approved by the Committee on Human Research at the University of California. The apoE4/4-iPSCs were differentiated into neurons as reported with modifications. iPSCs were treated with collagenase IV (Stem Cell Technologies) and grown in suspension as embryoid bodies in hES medium without bFGF. The medium was replaced every day for 5 days. On day 5, embryoid bodies were grown in Neural Induction Medium containing Dulbecco's modified Eagle's medium/F12 and Neurobasal Medium (1:1, Thermo Fisher), 1% N2 Supplement (Life Technologies), 1% B27 Supplement (Life Technologies), nonessential amino acids, and 0.5% penicillin/streptomycin (Life Technologies) supplemented with inhibitors of the TGF-β receptor (SB431542, Stemgent; 5 μM) and the bone morphogenetic protein receptor (LDN-193189, Stemgent; 0.25 μM). On day 7, spheres were transferred to wells coated with Matrigel (BD Biosciences) and grown in Neural Progenitor Medium, which consisted of Neural Induction Medium without SB and LDN, but containing 10 ng/ml bFGF (PeproTech), 10 ng/ml epidermal growth factor (EGF) (PeproTech), and 2 μg/ml heparin (Sigma). Attached neuroepithelial cells were fed every other day for 7 days. Neural rosette structures appeared by around day 15, were lifted off the plate, and grown in suspension in Neural Progenitor Medium to form neurospheres. For neuronal differentiation, neurospheres were dissociated with Accutase and plated on culture plates coated with 100 μg/ml poly-1-ornithine (Sigma) and 10 μg/ml laminin (Sigma). Neuronal cultures were maintained in Neural Differentiation Medium consisting of Neural Progenitor Medium, brain-derived neurotrophic factor (10 ng/ml; PeproTech), and glial cell-derived growth factor (10 ng/ml; PeproTech) without bFGF, EGF, or heparin. Neurons were observed after several days and were further differentiated for 30 days or longer. Most of the experiments were performed on the neuronal culture differentiated beyond 8 weeks. This culture condition generated neuronal cells with 75±4% vGLUT^+ total glutamatergic excitatory neurons, 15±3% GABA^+ GABAergic inhibitory neurons, and 5±2% TH^+ dopaminergic neurons. RNA-Seq Analysis of Human ApoE4/4-iPS-derived Neurons. Total RNA was extracted and purified from apoE4/4-iPSC-derived human neurons with the Qiagen RNeasy Micro kit, which included a DNase treatment. cDNA was generated from full-length RNA (50 ng per sample) with the NuGEN RNA-Seq V2 kit, which uses the single primer isothermal amplification method to deplete ribosomal RNA, and sheared by Covaris to yield fragments of uniform size. The NuGen Ultralow system V2 was used for adding adapters and for barcoding and amplification. The resulting RNA libraries were purified with Agencourt XP magnetic beads, and quantified by qPCR after quality control with an Agilent Bioanalyzer. The libraries were pooled and sequenced with a HiSeq 4000 instrument (Illumina) for single-end (SE50) sequencing. Sequence data were aligned with the STAR short read aligner and counts per feature were obtained with the featureCounts function from the Subread package. […]

[1] = vs vehicle, P<0.05 by Monte Carlo Simulation

## CCCCNc1cc(C(=O)O)cc(S(N)(=O)=O)c1Oc1ccccc1 [bumetanide, 3-(butylamino)-4-phenoxy-5-sulfamoylbenzoic acid]
  number of pathways also shared with the apoE4/4 AD signature from humans: 4
  number of pathways overlapping with mouse hippocampal neuronal cells exhibiting the predicted drug effect: 14
  number of significantly perturbed pathways: 27
[1]
  shift in FC rank of genes downregulated in apoE4/4 AD: shifted upward towards lower rank numbers
  shift in FC rank of genes upregulated in apoE4/4 AD: shifted downward towards higher rank numbers

Reference: US12544348B2, “Methods for treating APOE4/4-associated disorders” (The Regents of the University of California, priority 2018, dated 2026)
